Measured values reported in patent US20220088031A1, “METHODS AND COMPOSITIONS FOR TREATING RESISTANT AND RECURRENT FORMS OF CANCER” (Health Research, Inc., priority 2019, published 2022).

Columns and labels:
Type in all cases: cell-based, human
[1] = test system: E006AA cells; assay: Cell death quantification, Trypan blue exclusion assay
Experimental: Cell viability assay: PCa cells (5×10^4 cells/well) were seeded on 6-well cell culture plates and incubated with DOC (1-20 nM) for 24 hrs. Floating and attached cells were collected using trypsinization. Live and dead cells were counted under a light microscope using a trypan blue exclusion assay.

[2] = test system: E006AA cells; assay: Caspase-3 (DEVDase) activity assay; details: DOC 24 hrs; AA PCa cells compared to CA PCa cells
Experimental: Caspase-3 (DEVDase) activity assay: PCa cell lysates prepared in NP40 lysis buffer were incubated with DEVD-AFC (caspase-3 substrate) at 37° C. for 90 min in caspase activity assay buffer (50 mM HEPES pH 7.4, 150 mM NaCl, 1% CHAPS, 1 mM EDTA, 1 mM DTT, 50% glycerol). Fluorescence intensity was detected using a Synergy microplate reader at excitation and emission wavelengths of 400 nm and 508 nm, respectively. Arbitrary fluorescence units were normalized with protein content of cell lysates and represented as fold change compared to control groups.

[3] = test system: E006AA cells; assay: Immunoblot analysis of CC in cytosolic and mitochondrial fractions; details: DOC 24 hrs; AA PCa cells
Experimental: (§1) Subcellular fractionation for the preparation of cytosolic and mitochondrial fractions: Cells were seeded on 15 cm cell culture plates followed by treatment with various compounds for the preparation of cytosolic and mitochondrial fractions as described. Cells were harvested via gentle scraping, washed twice with ice cold 1×PBS, and resuspended in homogenization buffer (20 mM HEPES, pH 7.4; 10 mM KCl; 1.5 mM MgCl2; 1 mM EDTA; 1 mM EGTA; 250 mM sucrose) supplemented with freshly added 1× protease inhibitor cocktail and 1 mM DTT. Cells were incubated in homogenization buffer for 30 min in ice and homogenized using a dounce homogenizer (˜25 strokes using pestle A). Cell homogenates were pre-cleared of unbroken cells and debris using centrifugation at 1000 g for 10 min. The supernatant was collected in new tubes and centrifuged at 12000 rpm for 20 min to obtain a mitochondrial pellet, which was washed 3 times with homogenization buffer and lysed in NP40 buffer, and stored as the mitochondrial fraction. The supernatant was ultra-centrifuged to obtain purified cytosol.
(§2) Immunoblotting: Immunoblotting was performed as described previously. Protein lysates were prepared using a lysis in NP-40 buffer (50 mM Tris-HCl pH 7.4, 150 mM NaCl, 1 mM EDTA, 1 mM EGTA, 1% NP-40) supplemented with protease and phosphatase inhibitor cocktail. Protein content was quantified using a micro BCA protein estimation kit (Thermo Scientific, Waltham, Mass.; Cat #23235). Protein samples were resolved on 4-20% Criterion gels, transferred on nitrocellulose membranes (BioRad, Hercules, Calif.) and subjected to immunoblotting. Membranes were blocked in 5% fat free dry milk (Blotto, Santa Cruz, Dallas, Tex.; Cat #sc-2324) prepared in PBS-T (Tween-20) and incubated overnight in primary antibodies (1:1000 dilution) at 4° C. with continuous shaking. After washing with PBS-T, membranes were incubated in HRP conjugated anti-mouse or anti-rabbit secondary antibody at room temperature for 1 hr. After washing with PBS-T, proteins were detected using Clarity chemiluminescent reagent (BioRad, Hercules, Calif.; Cat #1705061) and X-Ray films (ASI, Fort Lauderdale, Fla.; Cat #XR1570). Membranes were stripped using stripping buffer and probed with HRP conjugated beta-actin antibody to ensure equal loading of proteins.

[4] = test system: LNCaP cells; assay: Immunoblot analysis of CC and Drp1 in cytosolic and mitochondrial fractions; details: CA PCa cells
Experimental: as §1, with “The supernatant was ultra-centrifuged to obtain purified cytosol.” left out
Immunoblotting: Immunoblotting was performed as described previously. […] Protein content was quantified using a micro BCA protein estimation kit (Thermo Scientific, Waltham, Mass.; Cat #23235). […] After washing with PBS-T, proteins were detected using Clarity chemiluminescent reagent (BioRad, Hercules, Calif.; Cat #1705061) and X-Ray films (ASI, Fort Lauderdale, Fla.; Cat #XR1570). […]

[5] = test system: E006AA cells; assay: Clonogenic assay; details: exposure of DOC; AA PCa cells
Experimental: (§3) Clonogenic assay: PCa cells were seeded in each well of 6 well cell culture plates. Cells were treated and plates were incubated in a CO2 cell culture incubator for 6 more days. Colonies were fixed in 10% formalin first and stained with 0.5% crystal violet solution. Plates were dried and pictures were captured using a Gel documentation system and Coomassie blue filter (Bio Rad, Hercules, Calif.).

[6] = test system: LNCaP, DU145, PC-3 cells; assay: Clonogenic assay; details: exposure of DOC; CA PCa cells
Experimental: as §3

[7] = test system: E006AA cells; assay: Cell cycle analysis, PI staining; details: DOC 24 hrs; AA PCa cells
Experimental: (§4) Cell cycle analysis: Cell cycle phases in LNCaP and E006AA cells were analyzed using Propidium Iodide (PI) staining. Cells were treated with DOC for 24 hrs, fixed in 70% ethanol, stained with PI staining solution (0.1% sodium citrate, 0.2 mg/ml RNAse, 0.05 mg/ml propidium iodide, 0.2% NP 40, 1N HCl), and analyzed using flow cytometry. Data were analyzed using FACS-DIVA software and represented as % cells in each cell cycle phase.

[8] = test system: LNCaP cells; assay: Cell cycle analysis, PI staining; details: DOC 24 hrs; CA PCa cells
Experimental: as §4

[9] = test system: p-Drp1^S616 in LNCaP cells; assay: Immunoblot of p-Akt^S473 and p-Drp1^S616 after AKT inhibitor; details: Wort 1 μM
Experimental: as §2

## CC(=O)O[C@@]12CO[C@@H]1C[C@H](O)[C@@]1(C)C(=O)[C@H](O)C3=C(C)[C@@H](OC(=O)[C@H](O)[C@@H](NC(=O)OC(C)(C)C)c4ccccc4)C[C@@](O)([C@@H](OC(=O)c4ccccc4)[C@H]21)C3(C)C [DOC, Docetaxel]
[1]; DOC 24 hrs, AA PCa cells compared to CA PCa cells
  DOC-induced cell death: reduced in various AA PCa cells compared to CA PCa cells
[2]
  DOC-induced caspase activation: reduced in various AA PCa cells compared to CA PCa cells
[3]
  CC expression and release from mitochondria to cytosol: not in AA PCa cells
[4]; DOC 24 hrs
  CC expression and release from mitochondria to cytosol: induced CC expression and release from mitochondria to the cytosolic compartment
[4]; in response to DOC
  Drp1 localization: translocated to mitochondria
[5]
  colony forming ability (CFA): not AA PCa
[6]
  colony forming ability (CFA): abolished CFA
[7]
  effect on the cell cycle: cell cycle arrest at G2/M phase
[8]
  effect on the cell cycle: cell cycle arrest at G2/M phase

## O=C(O)C(=O)CBr [3-BrPA, 3-bromopyruvate]
[1]; in combination with DOC (24 hrs)
  cell death: induced dose-dependent cell death

## COC[C@H]1OC(=O)c2coc3c2[C@@]1(C)C1=C(C3=O)[C@@H]2CCC(=O)[C@@]2(C)C[C@H]1OC(C)=O [wortmanin]
[9]
  Drp1 phosphorylation at S616: Inhibition of Drp1 phosphorylation at S616
